Here are results for 22 molecules from US20070066608A1, “Novel indole derivatives with an improved antipsychotic activity” (priority 2003, published 2007).

For experiment [1], the target named is T1, Human Dopamine D2L receptor (Homo sapiens, UniProt P14416).
T1 construct: expressed in transfected cells; host or cells: CHO cells
The experiment in a line: Radioligand binding experiment for dopamine D2 receptor (hD2), [3H]Spiperone. The settings on record: membranes of D2L receptor-transfected CHO cells, read-out: pIC50 D2 (converted). Here is the method: (§1) The interaction of the compounds of Formula (I) with dopamine-receptors, h5HT-transporter and h5HT1A receptor was assessed in in vitro radioligand binding experiments. In general, a low concentration of a radioligand with a high binding affinity for a particular receptor or transporter is incubated with a sample of a tissue preparation enriched in a particular receptor or transporter or with a preparation of cells expressing cloned human receptors in a buffered medium. During the incubation, the radioligand binds to the receptor or transporter. When equilibrium of binding is reached, the receptor bound radioactivity is separated from the non-bound radioactivity, and the receptor- or transporter-bound activity is counted The interaction of the test compounds with the receptor is assessed in competition binding experiments. Various concentrations of the test compound are added to the incubation mixture containing the receptor- or transporter preparation and the radioligand. The test compound in proportion to its binding affinity and its concentration inhibits binding of the radioligand.
Human Dopamine D2L receptor-transfected CHO cells were collected by scraping into ice-cold Tris-HCl buffer ([…], pH 7.4). The suspension was centrifuged (23 500×g, 10 min, 4° C.) and pellets stored at −70° C. until require. They were then thawed and briefly homogenised using an Ultra-Turrax T25 homogeniser prior to dilution to an appropriate protein concentration optimised for specific and non-specific binding. [^3H]Spiperone (NEN, specific activity˜70 Ci/mmol) was diluted in Tris-HCl assay buffer containing NaCl, CaCl2, MgCl2, KCI (50, 120, 2, 1, and 5 mM respectively, adjusted to pH 7.7 with HCl) at a concentration of 2 nmol/L. Prepared radioligand (50 μl) was then incubated (30 min, 37° C.) with membrane preparations pre-diluted to an appropriate protein concentration (400 μl), and with 50 μl of either the 10% DMSO control, Butaclamol (10^−6 mol/L final concentration), or compound of interest. Membrane-bound activity was detected by filtration through a Packard Filtermate harvester onto Unifilterplates, washing with ice-old Tris-HCl buffer (50 mM; pH8.0; 3×4 ml). Filters were allowed to dry before adding scintillation fluid and counting in a Topcount scintillation counter. % Specific bound and competition binding curves were calculated using S-Plus software (Insightful).

Experiment [2] addresses T2, human 5HT transporter (Homo sapiens, UniProt P31645).
T2 construct: host or cells: HEK cells
The experiment in a line: Binding experiment for 5-HT transporter, [3H]Paroxetine. To be noted: 5HT transporter-transfected HEK cells, [3H]Paroxetine binding; read-out: pIC50 5HT reuptake inhibition (converted). On the procedure:
as §1
Frozen human 5HT transporter-transfected HEK cells (Perkin Elmer, Brussels) were thawed and briefly homogenised using an Ultra-Turrax T25 homogeniser prior to dilution to an appropriate protein concentration optimised for specific and non-specific binding. [^3H]Paroxetine (NEN, specific activity 20 Ci/mmol) was diluted in Tris-HCl assay buffer containing NaCl and KCl (50 mM 120 mM and 5 mM, respectively; pH 7.4) at a concentration of 5 nmol/L. Prepared radioligand (25 μl) was then incubated (60 min, 25° C.) with membrane preparations (200 μl) and with 25 μl of either 10% DMSO control, Imipramine (10^−6 mol/L final concentration), or compound of interest Membrane-bound activity was detected by filtration through a Packard Filtermate harvester onto Unifilterplates pre-soaked in 0.1% PEI, washing with ice-cold assay buffer (3×4 ml). Filters were dried prior to addition of scintillation fluid and then counting in a Topcount scintillation counter. % Specific bound and competition binding curves were calculated using S-Plus software (Insightful).

Experiment [3] deals with T3, Human 5HT1A receptor (Homo sapiens, UniProt P08908).
T3 construct: expressed in transfected cells; host or cells: L929 cells (stably transfected)
T3 sequence (P08908 1-422): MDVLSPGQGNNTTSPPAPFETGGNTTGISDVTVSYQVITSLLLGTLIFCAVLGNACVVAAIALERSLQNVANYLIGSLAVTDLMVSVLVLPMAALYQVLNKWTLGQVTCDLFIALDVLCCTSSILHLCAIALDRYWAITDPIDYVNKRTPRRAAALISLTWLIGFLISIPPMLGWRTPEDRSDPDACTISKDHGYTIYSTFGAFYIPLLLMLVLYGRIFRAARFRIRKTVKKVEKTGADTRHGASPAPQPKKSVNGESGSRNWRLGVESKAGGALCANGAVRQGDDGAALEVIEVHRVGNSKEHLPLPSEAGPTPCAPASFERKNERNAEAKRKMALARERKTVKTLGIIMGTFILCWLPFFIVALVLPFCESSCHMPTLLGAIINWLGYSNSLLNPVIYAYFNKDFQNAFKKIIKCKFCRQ
The experiment in a line: Binding experiment for 5-HT1A receptor, [3H]8OHDPAT. The settings on record: membranes of 5HT1A receptor-transfected L929 cells, read-out: pIC50 5HT1A (converted). On the procedure:
as §1
Human 5HT1A receptor-transfected L929 cells were collected by scraping into ice-cold Tris-HCl buffer (50 mM, pH 7.4). The suspension was centrifuged (23 500×g, 10 min, 4° C.) and pellets stored at −70° C. until required. They were then thawed and briefly homogenised using an Ultra-Turrax T25 homogeniser prior to dilution to an appropriate protein concentration optimised for specific and non-specific binding. [^3H]8OHDPAT (NEN, specific activity 127 Ci/mmol) was diluted in Tris-HCl assay buffer containing CaCl2 (50 mM and 4 mM, respectively; pH 7.7) at a concentration of 5 nmol/L. Prepared radioligand (50 μl) was then incubated (30 min, 37° C.) with membrane preparations from L929 cells stably-transfected with the h5HT1A gene construct (400 μl) and with 50 μl of either the 10% DMSO control, spiroxatrine (10^−6 mol/L final concentration), or compound of interest. Membrane-bound activity was detected by filtration through a Packard Filtermate harvester onto Unifaltemplates, washing with ice-cold Tris-HCI buffer (3×4 ml), followed by drying. Scintillation fluid was added and membranes were counted in a Topcount scintillation counter. % Specific bound and competition binding curves were calculated using S-Plus software (Insightful).

In experiment [4] the target is T4, Human Dopamine D3 receptor (Homo sapiens, UniProt P35462).
T4 construct: expressed in transfected cells; host or cells: CHO cells
T4 sequence (P35462 whole entry): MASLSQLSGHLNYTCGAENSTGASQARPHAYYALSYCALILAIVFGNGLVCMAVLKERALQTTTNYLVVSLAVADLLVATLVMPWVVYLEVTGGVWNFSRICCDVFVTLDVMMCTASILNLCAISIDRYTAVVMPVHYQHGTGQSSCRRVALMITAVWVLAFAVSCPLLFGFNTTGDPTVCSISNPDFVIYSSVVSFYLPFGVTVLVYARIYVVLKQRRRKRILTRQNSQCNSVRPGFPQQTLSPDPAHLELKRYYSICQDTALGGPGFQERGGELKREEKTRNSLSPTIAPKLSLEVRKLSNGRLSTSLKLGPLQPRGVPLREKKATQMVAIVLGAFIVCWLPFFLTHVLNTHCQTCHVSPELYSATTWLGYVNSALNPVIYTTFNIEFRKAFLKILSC
The experiment can be described thus: Radioligand binding experiment for dopamine D3 receptor (hD3), [125I]Iodosulpride. To be noted: membranes of D3 receptor-transfected CHO cells, read-out: pIC50 D3 (converted). On the procedure: as §1
Human Dopamine D3 receptor-transfected CHO cells were collected by scraping into ice-cold Tris-HCl buffer (50 mM, pH 7.4). The suspension was centrifuged (23 500×g, 10 min, 4° C.) and pellets stored at −70° C. until required. They were then thawed and briefly homogenised using an Ultra-Turrax T25 homogeniser prior to dilution to an appropriate protein concentration optimised for specific and non-specific binding. [^125]Iodosulpride (Amersham, specific activity 2000 Ci/mmol) was diluted in Tris-HCl assay buffer containing NaCl, CaCl2, MgCl2, KCl and BSA (50, 120, 2, 1, 5 mM, 0.1% respectively, adjusted to pH 7.7 with HCl) at a concentration of 2 nmol/L. Prepared radioligand (20 μl) was incubated (60 min, RT) and with 20 μl of either the 10% DMSO control, Risperidone (10^−6 mol/L final concentration), or compound of interest, then with membrane preparations (80 μl). Overnight incubation followed after addition of WGA-coated PVT SPA beads (250 μl; Amersham) and membrane-bound counts measured in a Wallac Microbeta. % Specific bound and competition binding curves were calculated using S-Plus software (Insightful).

SMILES strings stand for the structures.

T1 sequence (P14416 whole entry): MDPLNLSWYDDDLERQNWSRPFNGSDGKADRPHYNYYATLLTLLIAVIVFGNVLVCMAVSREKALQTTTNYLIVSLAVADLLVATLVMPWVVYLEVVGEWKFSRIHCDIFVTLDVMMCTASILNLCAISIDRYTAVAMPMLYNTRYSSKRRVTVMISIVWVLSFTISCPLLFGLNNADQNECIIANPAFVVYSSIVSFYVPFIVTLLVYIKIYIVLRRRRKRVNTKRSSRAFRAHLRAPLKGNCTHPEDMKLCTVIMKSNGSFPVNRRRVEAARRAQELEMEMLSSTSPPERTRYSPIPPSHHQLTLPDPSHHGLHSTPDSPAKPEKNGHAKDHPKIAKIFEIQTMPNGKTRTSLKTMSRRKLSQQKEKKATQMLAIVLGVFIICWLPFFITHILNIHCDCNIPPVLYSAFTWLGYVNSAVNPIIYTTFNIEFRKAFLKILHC
T2 sequence (P31645 whole entry): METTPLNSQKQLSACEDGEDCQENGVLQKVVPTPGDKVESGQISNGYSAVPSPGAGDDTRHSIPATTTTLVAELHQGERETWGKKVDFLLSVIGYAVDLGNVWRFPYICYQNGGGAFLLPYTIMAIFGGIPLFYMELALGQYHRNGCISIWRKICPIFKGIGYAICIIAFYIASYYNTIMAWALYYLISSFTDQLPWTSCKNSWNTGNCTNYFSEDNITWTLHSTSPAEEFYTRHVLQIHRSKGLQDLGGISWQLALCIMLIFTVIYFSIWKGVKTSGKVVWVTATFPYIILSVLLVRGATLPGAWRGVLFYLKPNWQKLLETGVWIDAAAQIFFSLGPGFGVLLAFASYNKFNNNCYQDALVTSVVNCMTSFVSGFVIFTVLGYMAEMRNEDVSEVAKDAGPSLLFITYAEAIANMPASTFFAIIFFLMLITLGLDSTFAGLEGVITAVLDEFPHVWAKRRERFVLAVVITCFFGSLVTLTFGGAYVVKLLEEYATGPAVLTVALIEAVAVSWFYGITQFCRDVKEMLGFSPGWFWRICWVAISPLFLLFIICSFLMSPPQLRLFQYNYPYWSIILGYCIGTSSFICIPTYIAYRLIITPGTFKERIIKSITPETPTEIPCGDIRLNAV

With `O=[N+]([O-])c1ccc2[nH]cc(C3=CCN(CC4COc5ccncc5O4)CC3)c2c1` (racemic) [Compound 14], the IC50 in experiment [1] is 100 nM; in experiment [2], 100 nM; in experiment [3], 200 nM.
As for `N#Cc1ccc2[nH]cc(C3CCN(CC4COc5ccncc5O4)CC3)c2c1` (racemic) [Compound 20], the IC50 was 63.1 nM in experiment [1] and 39.8 nM in experiment [2].
As for `O=[N+]([O-])c1ccc2[nH]cc(C3=CCN(CC4COc5ccncc5O4)CC3)c2c1` (single isomer, unassigned) [Compound 15], the IC50 in experiment [1] is 200 nM; in experiment [2], 10 nM.
The like results for `O=[N+]([O-])c1ccc2[nH]cc(C3=CCN(CC4COc5ccncc5O4)CC3)c2c1` (single isomer, unassigned) [Compound 16] were, in that order, 316 nM and 251 nM.
For `N#Cc1ccc2[nH]cc(C3CCN(CC4COc5ccncc5O4)CC3)c2c1` (single isomer, unassigned) [Compound 21], the IC50 in experiment [1] is 79.4 nM; in experiment [2], 20 nM; in experiment [3], 31.6 nM.
Turning to `N#Cc1ccc2[nH]cc(C3CCN(CC4COc5ccncc5O4)CC3)c2c1` (single isomer, unassigned) [Compound 22], the IC50 was 794 nM in experiment [1], 501 nM in experiment [2] and 10 nM in experiment [3].
Turning to `CN1CC(CN2CC=C(c3c[nH]c4ccc(F)cc34)CC2)Oc2ncccc21` (stereo not drawn) [Compound 1], the IC50 in experiment [1] was 200 nM; in experiment [4] it was 79.4 nM; in experiment [2], 15.8 nM; in experiment [3], 12.6 nM.
On to `CN1CC(CN2CCC(c3c[nH]c4ccc(F)cc34)CC2)Oc2ncccc21` (stereo not drawn) [Compound 2], for which the IC50 in experiment [1] is 398 nM; in experiment [4] it was 100 nM; in experiment [2], 316 nM; in experiment [3], 15.8 nM.
The like results for `CN1CC(CNCCCc2c[nH]c3ccc(F)cc23)Oc2ncccc21` (stereo not drawn) [Compound 3] were, in that order, above 1000 nM, 398 nM, 200 nM and 3.16 nM.
`Fc1ccc2[nH]cc(C3CCN(CC4COc5ccncc5O4)CC3)c2c1` (stereo not drawn) [Compound 5]: the IC50 was 79.4 nM in experiment [1], 6.31 nM in experiment [4], 126 nM in experiment [2] and 39.8 nM in experiment [3].
For `Fc1ccc2[nH]cc(CCCNCC3COc4ccncc4O3)c2c1` (stereo not drawn) [Compound 6], in that order: 200 nM, 31.6 nM, 316 nM and 6.31 nM.
As for `Fc1ccc2[nH]cc(CCCNCC3Oc4cccnc4O3)c2c1` (stereo not drawn) [Compound 9], the IC50 in experiment [1] was above 1000 nM; in experiment [4] it was 251 nM; in experiment [2], 501 nM; in experiment [3] it was 31.6 nM.
For `Fc1ccc2[nH]cc(CCCNCC3COc4cccnc4O3)c2c1` (stereo not drawn) [Compound 11], in that order: 158 nM, 398 nM, 316 nM and 1.26 nM.
As to `Fc1cccc2[nH]cc(C3=CCN(CC4COc5ccncc5O4)CC3)c12` (stereo not drawn) [Compound 12], the IC50 in experiment [4] is 158 nM; in experiment [2] it was 100 nM.
Regarding `Brc1ccc2[nH]cc(C3=CCN(CC4COc5ccncc5O4)CC3)c2c1` (stereo not drawn) [Compound 13], the IC50 in experiment [1] is 158 nM; in experiment [2], 100 nM.
For the molecule `Fc1cccc2c(C3=CCN(CC4COc5ccncc5O4)CC3)c[nH]c12` (stereo not drawn) [Compound 17], the IC50 is 126 nM in experiment [1] and 50.1 nM in experiment [2].
For `Clc1ccc2[nH]cc(C3CCN(CC4COc5ccncc5O4)CC3)c2c1` (stereo not drawn) [Compound 18], in that order: 31.6 nM and 200 nM.
Consider `Oc1ccc2[nH]cc(C3CCN(CC4COc5ccncc5O4)CC3)c2c1` (stereo not drawn) [Compound 19], for which the values for the IC50 in experiment [1] and in experiment [2] were 63.1 nM and 316 nM, respectively.
Turning to `Fc1ccc2c(C3CCN(CC4COc5ccncc5O4)CC3)c[nH]c2c1` (stereo not drawn) [Compound 23], the figures for the IC50 in experiment [1] and in experiment [2] were 25.1 nM and 251 nM, respectively.
The like results for `Fc1cccc2c(C3CCN(CC4COc5ccncc5O4)CC3)c[nH]c12` (stereo not drawn) [Compound 24] were, in that order, 25.1 nM and 316 nM.
Turning to `Fc1ccc2[nH]cc(CC3CCN(CC4COc5ccncc5O4)CC3)c2c1` (stereo not drawn) [Compound 25], the IC50 is 794 nM in experiment [1] and 63.1 nM in experiment [2].
On to `Fc1ccc2[nH]cc(C3=CCN(CC4COc5cccnc5O4)CC3)c2c1` (stereo not drawn) [I, reference compound], for which the IC50 in experiment [1] is 251 nM; in experiment [4], 501 nM; in experiment [2], 200 nM; in experiment [3], 126 nM.
